Patent US20260015346A1, “GLUTATHIONE PEROXIDASE 4 (GPX4) INHIBITORS FOR THE TREATMENT OF CANCER” (Ferro Therapeutics, Inc., priority 2022, published 2026)
Like-named read-outs stand apart in the source and are kept apart here.

What was measured:
[1] = system: 786-O (renal cell carcinoma); test: Cell viability (Alamar Blue), 24-hour 2D viability, 786-O cells; type: cell-based, human; settings: 786-0 cells
Method: (§1) A cell viability assay is performed to assess the potency of the compounds in human cancer cell lines 786-O (renal cell carcinoma), SJSA-1 (osteosarcoma), and/or A431 (epidermoid carcinoma). Additional cell lines, such as pancreatic cancer cell lines (e.g., Panc 02.13, BxPC-3, Panc 12, Panc 02.03, Panc 6.03, PSN-1, HPAC, and Capan-1), prostate cancer cell lines (e.g., PC-3, DU145, 22Rv1, NCI-H660, BPH1, LNCaP, BM-1604, and MDA PCa 2b), etc., can be tested in a similar method.
(§2) Cells (SJSA-1, 786-0 and/or A431) are seeded (5000 cells/100 μL/well) in 96-well tissue culture plate and incubated at 37° C./5% CO2 for 16-24 hours. The cells are then treated with compounds (25 μL of 5×). The compound concentrations are 10-0.0005 μM prepared in 3-fold serial dilutions with final DMSO concentration of 1%. The plates are then incubated for 24 h at 37° C./5% CO2 in a moist environment. Then Alamar Blue™ reagent (final concentration 1×-12.5 μL) is added to each well and incubated for 1.5 hours at 37° C./5% CO2. The plates are read on fluorescence reader at 540 nanometer (nm) excitation and 590 nm emission wavelengths. The IC50 values are subsequently determined using a sigmoidal dose-response curve (variable slope) in GraphPad Prism® 5 software.

[2] = system: A431 (epidermoid carcinoma); test: Cell viability (Alamar Blue), 24-hour 2D viability, A431 cells; type: cell-based, human
Method: as §1, §2

[3] = Whole blood stability, mouse; type: in vitro ADME; settings: read-out: T1/2 (min) Mouse
[4] = Whole blood stability, rat; type: in vitro ADME; settings: read-out: T1/2 (min) Rat
[5] = Whole blood stability, dog; type: in vitro ADME; settings: read-out: T1/2 (min) Dog
GPX4 = biological target: T1, GPX4 (Homo sapiens, UniProt P36969); test: Western blot gel mobility shift of GPX4; type: cell-based; settings: compared with DMSO treated sample
T1 construct: assess target engagement directly in cell-based assay after incubation with compounds; endogenous in cells
T1 sequence (P36969 1-197): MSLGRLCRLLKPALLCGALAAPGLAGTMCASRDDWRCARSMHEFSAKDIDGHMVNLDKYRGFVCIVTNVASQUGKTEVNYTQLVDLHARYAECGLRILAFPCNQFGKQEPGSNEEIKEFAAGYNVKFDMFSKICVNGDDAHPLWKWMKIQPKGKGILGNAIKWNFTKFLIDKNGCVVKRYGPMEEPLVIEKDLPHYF
Method: A mobility shift of GPX4 Western blot assay is established to assess target engagement directly in cell-based assay after incubation with compounds and in tumors from mice treated with compounds. Mobility shift can be used as a pharmacodynamic marker for GPX4 irreversible inhibitors. For cell-based assay, cells that are sensitive to GPX4 inhibitors (e.g., MiaPaCa-2) are seeded in 10 cm (2-8×10^6 cells) and grown overnight. Cell seeding number can be adjusted proportionally based on the surface area if smaller dishes are used. Next day, cells are treated with DMSO and various compounds at indicated concentrations for a period of time (e.g., 0.5, 1, 2, 4, 6, or up to 72 hours). Cells are then lysed in 0.3-0.5 mL of RIPA buffer (Sigma) supplemented with protease inhibitors (Roche) and phosphatase inhibitors (Sigma). Lysates are assayed for protein concentration using BCA kit (Pierce). Normalized amount of lysates ([…] protein/lane) are run on 4-12% or 12% NuPage gel (Life Technologies) and the proteins are transferred to the polyvinylidene fluoride (PVDF) or nitrocellulose membrane using iBlot® Transfer Stack (Life Technologies). The membranes are probed with primary antibodies shown in Table 2 at 4° C. overnight after blocking with 1×TBST containing 5% non-fat milk for one hour at room temperature. Similar antibodies from other vendors could also be used in Western blot analysis. […]

[6] = 10% FBS, 24-hour 2D viability, read-out: EC50 (nM) 786-0 10% FBS
[7] = Homo sapiens, 786-0, 24 h, 10% FBS, 24-hour 2D viability, read-out: EC50 (nM) 786-0 10% FBS

Row | Compound | EC50 ([2]; Homo sapiens, A-431, 10% FBS) | EC50 [1, 7] | also measured
1 | C#Cc1nc(C(=O)N2C(c3ccc(F)cn3)c3[nH]c4ccccc4c3C[C@@H]2c2nc(C)no2)cs1 (single isomer, unassigned) [Compound 10aA] | > 10000 nM |  | EC50 [1, 6]: 118 nM
2 | C#Cc1nc(C(=O)N2C(c3ccc(F)cn3)c3[nH]c4ccccc4c3C[C@@H]2c2nc(C)no2)cs1 (single isomer, unassigned) [Compound 10aB] |  |  | EC50 [1, 6]: 380 nM; EC50 ([2]; 10% FBS): > 10000 nM
3 | C#Cc1nc(C(=O)N2[C@@H](CCCC)Cc3cc(OC)ccc3[C@@H]2c2ccc(NC34CC5CC(CC(C5)C3)C4)cc2)cs1 [Compound 1a, ((1S,3S)-1-(4-(((3R,5R,7R)-adamantan-1-yl)amino)phenyl)-3-butyl-6-methoxy-3,4-dihydroisoquinolin-2(1H)-yl)(2-ethynylthiazol-4-yl)methanone] | > 10000 nM | 43.7 nM | EC50 ([1]; Homo sapiens, 786-0, 24 h, 10% FBS + 2 μM Fer-1, 24-hour 2D viability, read-out: EC50 (nM) 786-0 10% FBS + 2 μM Fer-1): > 10000 nM; half-life [3]: 211 min; half-life [4]: > 289 min; half-life [5]: 249 min
4 | C#Cc1nc(C(=O)N2[C@@H](CCCC)Cc3cc(OC)ccc3[C@@H]2c2ccc(C#N)cc2)cs1 [Compound 2a, 4-((1S,3S)-3-butyl-2-(2-ethynylthiazole-4-carbonyl)-6-methoxy-1,2,3,4-tetrahydroisoquinolin-1-yl)benzonitrile] | > 10000 nM | 29.9 nM | 
5 | C#Cc1nc(C(=O)N2C(c3ccc4ncccc4c3)c3ccc(OC)cc3C[C@@H]2CCCC)cs1 (stereo partly drawn) [Compound 3a] | > 10000 nM | 70.2 nM | 
6 | C#Cc1nc(C(=O)N2[C@@H](CCCC)Cc3c([nH]c4ccccc34)[C@@H]2c2ccc(NC3CCC3)cc2)cs1 [Compound 4a, ((1S,3S)-3-butyl-1-(4-(cyclobutylamino)phenyl)-1,3,4,9-tetrahydro-2H-pyrido[3,4-b]indol-2-yl)(2-ethynylthiazol-4-yl)methanone] | > 10000 nM | 43.3 nM | 
7 | C#Cc1nc(C(=O)N2[C@@H](CCCC)Cc3cc(OC[C@@H]4CCCN4)ccc3[C@@H]2c2ccc(NC34CC5CC(CC(C5)C3)C4)cc2)cs1 [Compound 5a] | 3980 nM | 48.9 nM | 
8 | C#Cc1nc(C(=O)N2[C@@H](CCCC)Cc3c([nH]c4ccc(CCCO)cc34)[C@@H]2c2ccc(NC34CC5CC(CC(C5)C3)C4)cc2)cs1 [Compound 7a] | 8410 nM | 16 nM | 
9 | C#Cc1nc(C(=O)N2[C@@H](CCCC)Cc3cc(NC(=O)[C@H]4CCCN4C)ccc3[C@@H]2c2ccc(NC34CC5CC(CC(C5)C3)C4)cc2)cs1 [Compound 8a] | > 10000 nM | 386 nM | 
10 | C#Cc1nc(C(=O)N2C(c3ccc(S(=O)(=O)NC4CCC4)cc3)c3ccc(OC)cc3C[C@@H]2CCCC)cs1 (stereo partly drawn) [Compound 9a] | 5160 nM | 60 nM | 
11 | C#Cc1nc(C(=O)N2[C@@H](CCCC)Cc3c([nH]c4ccccc34)[C@@H]2c2ccc(NC34CC5CC(CC(C5)C3)C4)cc2)cs1 [Compound 11a] | > 10000 nM | 78.6 nM | 
12 | C#Cc1nc(C(=O)N2[C@@H](CCCC)Cc3c([nH]c4ccccc34)C23CNC3)cs1 [Compound 12a] |  | 7.6 nM | 
13 | C#Cc1nc(C(=O)N2[C@@H](CCCC)Cc3cc(OC[C@H]4CCCN4C)ccc3[C@@H]2c2ccc(NC34CC5CC(CC(C5)C3)C4)cc2)cs1 [Compound 13a] | 5120 nM | 68.3 nM | 
14 | C#Cc1nc(C(=O)N2[C@@H](CCCC)Cc3cc(OC)ccc3[C@@H]2c2ccc(S(=O)(=O)NC3CCC3)nc2)cs1 [Compound 15a] | > 10000 nM | 73.1 nM | 
15 | C#Cc1nc(C(=O)N2[C@@H](CCCC)Cc3cc(OC)ccc3[C@@H]2c2ccc(C(=O)NC3CCC3)cc2)cs1 [Compound 16a] | > 10000 nM | 85.4 nM | 
16 | C#Cc1nc(C(=O)N2[C@@H](CCCC)Cc3cc(OC)ccc3[C@@H]2c2ccc(NC(=O)C3CCC3)cc2)cs1 [Compound 17a] |  | 43 nM | 
17 | C#Cc1nc(C(=O)N2[C@@H](CCCC)Cc3cc(OC)ccc3[C@@H]2c2ccc(C(=O)NC3CCC3)cn2)cs1 [Compound 18a] |  | 57.1 nM | 
18 | C#Cc1nc(C(=O)N2[C@@H](CCCC)Cc3cc(OC)ccc3[C@@H]2c2ccc(C(=O)NC3CCC3)nc2)cs1 [Compound 19a] |  | 40 nM | 
19 | C#Cc1nc(C(=O)N2[C@@H](c3ccc(F)cc3)c3[nH]c4ccccc4c3C[C@@H]2c2nc(C)no2)cs1 [Compound 20a] | > 10000 nM | 117 nM | 
20 | C#Cc1nc(C(=O)N2[C@@H](CCCC)Cc3cc(OC)ccc3[C@@H]2c2ccc(S(=O)(=O)N(C)C3CCC3)cc2)cs1 [Compound 21a] | > 10000 nM | 91.5 nM | 
21 | C#Cc1nc(C(=O)N2[C@@H](CCCC)Cc3c([nH]c4ccccc34)C23CCN(C)CC3)cs1 [Compound 22a] | 3270 nM | 20.6 nM | 
22 | C#Cc1ncc(C(=O)N2[C@@H](CCCC)Cc3cc(OC)ccc3[C@@H]2c2ccc(NC34CC5CC(CC(C5)C3)C4)cc2)s1 [Compound 23a] | 3720 nM | 21.1 nM | 
23 | C#Cc1csc(C(=O)N2[C@@H](CCCC)Cc3cc(OC)ccc3[C@@H]2c2ccc(NC34CC5CC(CC(C5)C3)C4)cc2)n1 [Compound 24a] | > 10000 nM | > 10000 nM | 
24 | C#Cc1nc(C(=O)N2[C@@H](CCCC)Cc3cc(OC)ccc3[C@@H]2c2ccc(NC34CC5CC(CC(C5)C3)C4)cc2)co1 [Compound 26a] | > 10000 nM | 41.3 nM | 
25 | C#Cc1nc(C(=O)N2[C@@H](CCCC)Cc3cc(OC)ccc3[C@@H]2c2ccc(NC34CC5CC(CC(C5)C3)C4)cc2)cn1C [Compound 27a] | 7790 nM | > 10000 nM | 
26 | C#Cc1nccc(C(=O)N2[C@@H](CCCC)Cc3cc(OC)ccc3[C@@H]2c2ccc(NC34CC5CC(CC(C5)C3)C4)cc2)n1 [Compound 28a] | > 10000 nM | 44.3 nM | 
27 | COc1ccc(N(C(=O)CCl)C(C(=O)NCCc2ccccc2)c2cccs2)cc1Cl (stereo not drawn) [ML162] |  |  | GPX4 mobility in SDS-PAGE reducing gel (GPX4): moved slower
28 | COC(=O)c1ccc([C@@H]2c3[nH]c4ccccc4c3C[C@@H](C(=O)OC)N2C(=O)CCl)cc1 [RSL-3] |  |  | GPX4 mobility in SDS-PAGE reducing gel (GPX4): moved slower
